{"source": "patent US9453056B2", "about": "“Nucleic acid construct comprising nucleic acid derived from genome of hepatitis C virus of genotype 3a” (priority 2011, dated 2016)", "key": {"[1]": {"test_system": "S310A subgenomic replicon-replicating cells (clones)", "assay": "Effect of antiviral agents on replicon RNA replication in S310A subgenomic replicon-replicating cells (quantification of replicon RNA copy number)", "assay_type": "cell-based, hepatitis C virus of genotype 3a (S310A strain)", "conditions": "S310A subgenomic replicon-replicating cell clones 6, 9 and 10; inhibitor for 3 days; relative to no inhibitor (100%)", "method": "(§1) With the use of the S310A subgenomic replicon-replicating cells of the established 10 clones (Clone Nos. 1 to 10), the copy number of intracellular HCV subgenomic replicon RNA was quantified. The quantification of copy number of HCV subgenomic replicon RNA was carried out in accordance with the technique described in Takeuchi et al. (Gastroenterology, 1999, Vol. 116, pp. 636-642) and Kato et al. (Gastroenterology, 2003, Vol. 125, pp. 1808-1817).\n(§2) This technique is a detection system using TaqMan probe method (PerkinElmer Inc., Applied Biosystems Inc.). Specifically, total RNA was first extracted from the S310A subgenomic replicon-replicating cells in accordance with a conventional technique. Subsequently, cDNA was synthesized from total RNA using rTth DNA polymerase, and the synthesized cDNA template was amplified via PCR using the primers: 5′-CGGGAGAGCCATAGTGG-3′ (SEQ ID NO: 24) and 5′-AGTACCACAAGGCCTTTCG-3′ (SEQ ID NO: 25). At this time, a probe having the nucleotide sequence 5′-[…]-3′ (SEQ ID NO: 26) to which a fluorescent dye, 6′-carboxy-fluorescein (FAM), had been bound at the 5′ terminus and a quencher, 6′-carboxytetramethyl-rhodamine (TAMRA), had been bound at the 3′ terminus was added. In the presence of such probe, the probe that had hybridized to the template cDNA is degraded because of 5′ exonuclease activity of the Taq polymerase during the process of amplification, the fluorescent dye is released from the probe, suppression by the quencher is released, thereby emitting fluorescence. Thus, such fluorescence was detected with ABI Prism 7700 (ParkinElmer Inc., Applied Biosystems Inc.) to quantify the copy number of HCV subgenomic replicon RNA.\nThe S310A subgenomic replicon-replicating cells (clones) and the JFH-1 subgenomic replicon-replicating cells were seeded on 24-well plates at a density of 5×10^4 cells/well, interferon-α (IFN-α), NS3 protease inhibitors (VX-950 (telaprevir) (Lin et al, Journal of Biological Chemistry, 2004, Vol. 279, pp. 17508-17514) and BILN-2061 (Daniel et al, Nature, 2003, Vol. 426, pp. 186-189)), and NS5B polymerase inhibitors JTK-109 (Hirashima et al, Journal of Medicinal Chemistry, 2006, Vol. 49, pp. 4721-4736) and PSI-6130 (Clark et al, Journal of Medicinal Chemistry, 2005, Vol. 48, pp. 5504-5508) were added to the wells on the following day, and the reaction was allowed to proceed for 3 days. Thereafter, the cells were recovered, total RNAs were extracted therefrom, and the copy number of HCV subgenomic replicon RNA in the cells was quantified in the same manner as in Example 4.\nIn each figure, the horizontal axis represents the concentration of an inhibitor added. The vertical axis represents change ratio of HCV RNA levels, which is the percentage (%) of the amount of subgenomic replicon RNA per μg of total RNA from cells when an inhibitor was added, relative to the amount of subgenomic replicon RNA per μg of total RNA from cells when no inhibitor was added (0 IU or 0 M) (defined as 100%). In the Figures, the leftmost bar (white) represents the results for the JFH-1 subgenomic replicon-replicating cells, the second bar from the left (light gray) represents the results for the S310A subgenomic replicon-replicating cell clone 6, the third bar from the left (black) represents the results for the S310A subgenomic replicon-replicating cell clone 9, and the rightmost bar (dark gray) represents the results for the S310A subgenomic replicon-replicating cell clone 10 at each inhibitor concentration."}, "[2]": {"test_system": "JFH-1 subgenomic replicon-replicating cells", "assay": "Effect of antiviral agents on replicon RNA replication in JFH-1 subgenomic replicon-replicating cells (quantification of replicon RNA copy number)", "assay_type": "cell-based, hepatitis C virus of genotype 2a (JFH-1 strain)", "conditions": "inhibitor for 3 days, relative to no inhibitor (100%)", "method": "as §1, §2\nAs a control for comparison, the cells into which HCV subgenomic replicon RNA of the JFH-1 strain of genotype 2a had been introduced (the JFH-1 subgenomic replicon-replicating cells) were used. The JFH-1 strain HCV subgenomic replicon RNA expression vector (comprising the 5′ untranslated region (5′ UTR), the sequence of 57 nucleotides at the 5′ terminus of the Core protein coding region, the neomycin resistance gene, the EMCV IRES sequence, the nucleotide sequences encoding the NS3 protein, the NS4A protein, the NS4B protein, the NS5A protein and the NS5B protein, and the 3′ untranslated region (3′ UTR) of the HCV JFH-1 strain in this order from the 5′ to 3′ direction) was constructed and HCV subgenomic replicon RNA was produced in accordance with the techniques described in Kato et al. (Gastroenterology, 2003, Vol. 125, pp. 1808-1817) and International Publication No. WO 04/104198. Introduction thereof into the Huh cells and quantification of the copy number were carried out in the manner as described above. […]"}, "HCV genotype 3a": {"test_system": "HCV genotype 3a", "conditions": "Reesink et al., Gastroenterology, 2010; cited from earlier work"}, "[3]": {"test_system": "HCV genotypes 1 to 6 except for genotype 3a", "conditions": "Reesink et al., Gastroenterology, 2010; cited from earlier work"}, "HCV genotype 1b": {"test_system": "HCV genotype 1b", "conditions": "Mori et al., 1992; cited from earlier work"}, "HCV genotype 2a or 3a": {"test_system": "HCV genotype 2a or 3a", "conditions": "compared with genotype 1b; Mori et al., 1992; cited from earlier work"}}}
{"molecule": "C[C@@]1(F)[C@H](O)[C@@H](CO)O[C@H]1n1ccc(N)nc1=O", "note": "[PSI-6130]", "values": [{"measurement": "replication of the S310A subgenomic replicon RNAs (change ratio of HCV RNA levels)", "setting": "[1]", "result": "inhibited"}, {"measurement": "replication of the JFH-1 subgenomic replicon RNA (change ratio of HCV RNA levels)", "setting": "[2]", "result": "inhibited"}]}
{"molecule": "IFN-α", "values": [{"measurement": "replication of the S310A subgenomic replicon RNAs (change ratio of HCV RNA levels)", "setting": "[1]", "result": "markedly inhibited"}, {"measurement": "replication of the JFH-1 subgenomic replicon RNA (change ratio of HCV RNA levels)", "setting": "[2]", "result": "markedly inhibited"}]}
{"molecule": "O=C(O)c1ccc2c(c1)nc(-c1ccc(OCc3cc(N4CCCC4=O)ccc3-c3ccc(Cl)cc3)cc1F)n2C1CCCCC1", "note": "[JTK-109]", "values": [{"measurement": "replication of the S310A subgenomic replicon RNAs (change ratio of HCV RNA levels)", "setting": "[1]", "result": "markedly inhibited"}, {"measurement": "replication of the JFH-1 subgenomic replicon RNA (change ratio of HCV RNA levels)", "setting": "[2]", "result": "not to be inhibited"}]}
{"molecule": "CCC[C@H](NC(=O)[C@@H]1[C@H]2CCC[C@H]2CN1C(=O)[C@@H](NC(=O)[C@@H](NC(=O)c1cnccn1)C1CCCCC1)C(C)(C)C)C(=O)C(=O)NC1CC1", "note": "[VX-950, telaprevir]", "values": [{"measurement": "replication of the S310A subgenomic replicon RNAs (change ratio of HCV RNA levels)", "setting": "[1]", "result": "did not inhibit"}]}
{"molecule": "COc1ccc2c(O[C@@H]3C[C@H]4C(=O)N[C@]5(C(=O)NS(=O)(=O)C6CC6)C[C@H]5/C=C\\CCCCN(C)C(=O)[C@@H]4C3)cc(-c3nc(C(C)C)cs3)nc2c1C", "note": "[TMC435]", "values": [{"measurement": "inhibitory effects on genotype 3a", "setting": "HCV genotype 3a", "result": "weak inhibitory effects"}, {"measurement": "inhibitory effects on genotypes 1 to 6 except for genotype 3a", "setting": "[3]", "result": "strong inhibitory effects"}]}
{"molecule": "COc1ccc2c(O[C@@H]3C[C@H]4C(=O)N[C@]5(C(=O)O)C[C@H]5/C=C\\CCCCC[C@H](NC(=O)OC5CCCC5)C(=O)N4C3)cc(-c3csc(NC(C)C)n3)nc2c1", "note": "[BILN-2061]", "values": [{"measurement": "replication of the S310A subgenomic replicon RNAs (change ratio of HCV RNA levels)", "setting": "[1]", "result": "did not inhibit"}, {"measurement": "replication of the JFH-1 subgenomic replicon RNA (change ratio of HCV RNA levels)", "setting": "[2]", "result": "exert inhibitory activity"}]}
{"molecule": "interferon", "values": [{"measurement": "therapeutic effect of interferon on genotype 1b", "setting": "HCV genotype 1b", "result": "low"}, {"measurement": "therapeutic effect of interferon on genotype 2a or 3a", "setting": "HCV genotype 2a or 3a", "result": "higher"}]}
